In the NIST ThermoML archive (doi:10.1016/j.fluid.2017.01.019):

Experiment: xn = mol fraction of the nth substance listed
Settings: 100 kPa, Liquid; for speed of sound: Frequency=3 MHz, Sing-around technique in a fixed-path interferometer; for viscosity: Falling or rolling sphere viscometry; for mass density: Vibrating tube method

CCOS(=O)(=O)[O-].CCn1cc[n+](C)c1 [1-ethyl-3-methylimidazolium ethyl sulfate] + CO
Settings | mass density [kg/m3] | speed of sound [m/s] | viscosity [mPa·s]
293.15 K, x1 = 0.1067 | – | 1292.5 | –
293.15 K, x1 = 0.1996 | – | 1399.1 | –
293.15 K, x1 = 0.2919 | – | 1473.1 | –
293.15 K, x1 = 0.4021 | – | 1533.8 | –
293.15 K, x1 = 0.4918 | – | 1569.6 | –
293.15 K, x1 = 0.609 | – | 1606.4 | –
293.15 K, x1 = 0.7095 | – | 1632.8 | –
293.15 K, x1 = 0.8014 | – | 1652.9 | –
293.15 K, x1 = 0.904 | – | 1667.9 | –
293.15 K, x1 = 1 | – | 1682.3 | –
298.15 K, x1 = 0.1067 | 961.555 | – | 1.45
298.15 K, x1 = 0.1996 | 1042.5 | – | 3.84
298.15 K, x1 = 0.2919 | 1095.83 | – | 4.57
298.15 K, x1 = 0.4021 | 1138.91 | – | 7.83
298.15 K, x1 = 0.4918 | 1164.2 | – | 12.99
298.15 K, x1 = 0.609 | 1188.99 | – | 19.97
298.15 K, x1 = 0.7095 | 1204.69 | – | 31.61
298.15 K, x1 = 0.8014 | 1216.59 | – | 45.92
298.15 K, x1 = 0.904 | 1227.45 | – | 65.82
298.15 K, x1 = 1 | 1236.33 | – | 96.21
303.15 K, x1 = 0.1067 | 957.326 | 1278.1 | 1.35
303.15 K, x1 = 0.1996 | 1038.4 | 1386.3 | 3.29
303.15 K, x1 = 0.2919 | 1092.01 | 1459.8 | 4.15
303.15 K, x1 = 0.4021 | 1135.31 | 1522.6 | 7.09
303.15 K, x1 = 0.4918 | 1160.82 | 1556.9 | 11.38
303.15 K, x1 = 0.609 | 1185.52 | 1592.1 | 17.26
303.15 K, x1 = 0.7095 | 1201.31 | 1620.4 | 26.48
303.15 K, x1 = 0.8014 | 1213.11 | 1639.1 | 37.65
303.15 K, x1 = 0.904 | 1224.02 | 1655.7 | 53.03
303.15 K, x1 = 1 | 1232.93 | 1670 | 75.89
308.15 K, x1 = 0.1067 | 952.925 | 1263.8 | 1.26
308.15 K, x1 = 0.1996 | 1034.33 | 1372.7 | 2.8
308.15 K, x1 = 0.2919 | 1088.21 | 1446.5 | 3.78
308.15 K, x1 = 0.4021 | 1131.6 | 1509.8 | 6.42
308.15 K, x1 = 0.4918 | 1157.42 | 1544.4 | 10.02
308.15 K, x1 = 0.609 | 1182.08 | 1579.7 | 15.14
308.15 K, x1 = 0.7095 | 1198 | 1608.1 | 22.48
308.15 K, x1 = 0.8014 | 1209.7 | 1627 | 31.44
308.15 K, x1 = 0.904 | 1220.61 | 1643.6 | 43.71
308.15 K, x1 = 1 | 1229.57 | 1657.9 | 60.73
313.15 K, x1 = 0.1067 | 948.697 | 1249.6 | 1.17
313.15 K, x1 = 0.1996 | 1030.41 | 1359.3 | 2.47
313.15 K, x1 = 0.2919 | 1084.41 | 1433.5 | 3.48
313.15 K, x1 = 0.4021 | 1127.88 | 1497.1 | 5.85
313.15 K, x1 = 0.4918 | 1153.83 | 1531.8 | 8.91
313.15 K, x1 = 0.609 | 1178.56 | 1567.3 | 13.32
313.15 K, x1 = 0.7095 | 1194.76 | 1596 | 19.31
313.15 K, x1 = 0.8014 | 1206.29 | 1615 | 26.51
313.15 K, x1 = 0.904 | 1217.22 | 1631.6 | 36.28
313.15 K, x1 = 1 | 1226.21 | 1645.9 | 49.38
318.15 K, x1 = 0.1067 | 944.458 | 1235.4 | 1.09
318.15 K, x1 = 0.1996 | 1026.64 | 1345.8 | 2.23
318.15 K, x1 = 0.2919 | 1080.74 | 1420.5 | 3.21
318.15 K, x1 = 0.4021 | 1124.28 | 1484.5 | 5.34
318.15 K, x1 = 0.4918 | 1150.3 | 1519.3 | 7.96
318.15 K, x1 = 0.609 | 1175.06 | 1555 | 11.78
318.15 K, x1 = 0.7095 | 1191.48 | 1584 | 16.79
318.15 K, x1 = 0.8014 | 1202.9 | 1603.1 | 22.62
318.15 K, x1 = 0.904 | 1213.85 | 1619.7 | 30.46
318.15 K, x1 = 1 | 1222.87 | 1634.1 | 40.93
323.15 K, x1 = 0.1067 | 940.54 | 1221.4 | 1.02
323.15 K, x1 = 0.1996 | 1022.72 | 1332.3 | 1.95
323.15 K, x1 = 0.2919 | 1077.09 | 1407.6 | 2.96
323.15 K, x1 = 0.4021 | 1120.78 | 1471.9 | 4.85
323.15 K, x1 = 0.4918 | 1146.92 | 1506.8 | 7.08
323.15 K, x1 = 0.609 | 1171.65 | 1542.8 | 10.54
323.15 K, x1 = 0.7095 | 1188.29 | 1572.1 | 14.68
323.15 K, x1 = 0.8014 | 1199.51 | 1591.3 | 19.5
323.15 K, x1 = 0.904 | 1210.5 | 1607.9 | 25.98
323.15 K, x1 = 1 | 1219.54 | 1622.3 | 33.82

CCCCO [butan-1-ol] + CO
Settings | mass density [kg/m3] | speed of sound [m/s] | viscosity [mPa·s]
293.15 K, x1 = 0.0997 | – | – | 0.7
293.15 K, x1 = 0.1994 | – | – | 0.83
293.15 K, x1 = 0.3068 | – | – | 0.99
293.15 K, x1 = 0.3991 | – | – | 1.15
293.15 K, x1 = 0.5082 | – | – | 1.36
293.15 K, x1 = 0.604 | – | – | 1.57
293.15 K, x1 = 0.6992 | – | – | 1.77
293.15 K, x1 = 0.7994 | – | – | 2.05
293.15 K, x1 = 0.9038 | – | – | 2.34
293.15 K, x1 = 1 | – | – | 2.61
298.15 K, x1 = 0.0997 | 791.339 | 1130.6 | –
298.15 K, x1 = 0.1994 | 794.665 | 1150 | –
298.15 K, x1 = 0.3068 | 797.503 | 1169.2 | –
298.15 K, x1 = 0.3991 | 799.477 | 1183.5 | –
298.15 K, x1 = 0.5082 | 801.494 | 1197 | –
298.15 K, x1 = 0.604 | 802.958 | 1210.3 | –
298.15 K, x1 = 0.6992 | 804.13 | 1218 | –
298.15 K, x1 = 0.7994 | 805.057 | 1228.8 | –
298.15 K, x1 = 0.9038 | 805.689 | 1235.8 | –
298.15 K, x1 = 1 | 806.27 | 1241.1 | –
303.15 K, x1 = 0.0997 | 786.81 | 1114.2 | 0.65
303.15 K, x1 = 0.1994 | 790.266 | 1133.6 | 0.76
303.15 K, x1 = 0.3068 | 793.243 | 1152.4 | 0.91
303.15 K, x1 = 0.3991 | 795.305 | 1166.7 | 1.05
303.15 K, x1 = 0.5082 | 797.42 | 1180.4 | 1.23
303.15 K, x1 = 0.604 | 798.956 | 1193.7 | 1.41
303.15 K, x1 = 0.6992 | 800.184 | 1201.4 | 1.59
303.15 K, x1 = 0.7994 | 801.155 | 1212.1 | 1.83
303.15 K, x1 = 0.9038 | 801.817 | 1219.1 | 2.08
303.15 K, x1 = 1 | 802.42 | 1224.3 | 2.31
308.15 K, x1 = 0.0997 | 782.263 | 1097.9 | 0.6
308.15 K, x1 = 0.1994 | 785.837 | 1117.3 | 0.71
308.15 K, x1 = 0.3068 | 788.95 | 1136.4 | 0.84
308.15 K, x1 = 0.3991 | 791.101 | 1150.6 | 0.96
308.15 K, x1 = 0.5082 | 793.315 | 1163.9 | 1.12
308.15 K, x1 = 0.604 | 794.922 | 1177.2 | 1.28
308.15 K, x1 = 0.6992 | 796.169 | 1184.8 | 1.43
308.15 K, x1 = 0.7994 | 797.222 | 1195.5 | 1.64
308.15 K, x1 = 0.9038 | 797.914 | 1202.4 | 1.86
308.15 K, x1 = 1 | 798.536 | 1207.5 | 2.07
313.15 K, x1 = 0.0997 | 777.683 | 1081.8 | 0.56
313.15 K, x1 = 0.1994 | 781.397 | 1101 | 0.66
313.15 K, x1 = 0.3068 | 784.606 | 1119.8 | 0.77
313.15 K, x1 = 0.3991 | 786.863 | 1134.2 | 0.88
313.15 K, x1 = 0.5082 | 789.167 | 1147.5 | 1.02
313.15 K, x1 = 0.604 | 790.889 | 1160.7 | 1.18
313.15 K, x1 = 0.6992 | 792.224 | 1168.3 | 1.29
313.15 K, x1 = 0.7994 | 793.273 | 1178.9 | 1.47
313.15 K, x1 = 0.9038 | 793.979 | 1185.7 | 1.66
313.15 K, x1 = 1 | 794.617 | 1190.9 | 1.85
318.15 K, x1 = 0.0997 | 773.076 | 1065.7 | 0.53
318.15 K, x1 = 0.1994 | 776.932 | 1084.9 | 0.61
318.15 K, x1 = 0.3068 | 780.263 | 1103.6 | 0.71
318.15 K, x1 = 0.3991 | 782.592 | 1118 | 0.81
318.15 K, x1 = 0.5082 | 784.996 | 1131.2 | 0.93
318.15 K, x1 = 0.604 | 786.847 | 1144.4 | 1.05
318.15 K, x1 = 0.6992 | 788.248 | 1151.8 | 1.17
318.15 K, x1 = 0.7994 | 789.325 | 1162.4 | 1.33
318.15 K, x1 = 0.9038 | 789.993 | 1169.2 | 1.49
318.15 K, x1 = 1 | 790.655 | 1174.2 | 1.66
323.15 K, x1 = 0.0997 | 768.447 | 1049.7 | 0.51
323.15 K, x1 = 0.1994 | 772.448 | 1068.9 | 0.58
323.15 K, x1 = 0.3068 | 775.921 | 1087.5 | 0.66
323.15 K, x1 = 0.3991 | 778.306 | 1101.8 | 0.75
323.15 K, x1 = 0.5082 | 780.936 | 1115 | 0.86
323.15 K, x1 = 0.604 | 782.762 | 1128 | 0.96
323.15 K, x1 = 0.6992 | 784.201 | 1135.4 | 1.06
323.15 K, x1 = 0.7994 | 785.373 | 1145.9 | 1.2
323.15 K, x1 = 0.9038 | 785.98 | 1152.6 | 1.35
323.15 K, x1 = 1 | 786.645 | 1157.6 | 1.5
